From patent US7160684B2, “Methods of selecting compounds for modulation of bladder function” (Wyeth, priority 2000, dated 2007)

Tests used:
[1] = tested on: isolated rat bladder smooth muscle cell; experiment: Voltage clamp recording of outward current, rat cells; type: cell-based; details: test potentials between −50 and 80 mV; n=5
Text: (§1) Rat detrusor cells are isolated in a manner previously described for guinea-pig detrusor (Sheldon J H, Norton N W and Argentieri T M (1997) Inhibition of guinea pig detrusor contraction by NS-1619 is associated with activation of BKCa and inhibition of calcium currents. J Pharmacol Exp Thera 283(3): 1193–1200). Male Sprague-Dawley rats (Charles River, Wilmington, Mass.; 200–400 grams) are euthanized by CO2 inhalation and exsanguination. Their urinary bladders are rapidly removed and placed in 37° C. physiological solution with the following composition (mM): Na glutamate (80.0), NaCl (54.7), KCl (5.0), NaHCO3 (25.0), MgCl2.2H2O (2.5), D-glucose (11.8) and CaCl2 (0.2) gassed with O2—CO2, 95%/5% for a final pH of 7.4. The dome of the bladder is isolated from the trigone region and the mucosa is removed. This tissue is then cut into 2–3 mm wide strips and placed into fresh buffer for 1 hour. Tissues are then transferred into 10 ml of an isolation buffer containing the above composition plus collagenase type VIII (1.0 mg/ml) and pronase (0.25 mg/ml). After 10 minutes the isolation buffer is replaced with fresh isolation buffer for an additional 10 min. The tissue is then washed 3 times in fresh collagenase and pronase free solution and stored at room temperature until studied. Cells for study are prepared by triturating 1–2 pieces of detrusor tissue in 2 ml of fresh isolation buffer for 5 minutes with a polished Pasteur pipette, (tip diameter ˜1.5 mm) attached to a modified Harvard Respirator pump (Harvard Apparatus, Southnatic, Mass.) at a rate of 20×/min. with an approximate volume of 5 ml. Cells are then placed on a microscope stage in a temperature regulated tissue bath at 32.5° C. and continually superfused with PSS.
(§2) Single cell recordings are performed with a List-Medical EPC-7 patch clamp amplifier (Adams & List Assoc., Westbury, N.Y.). Pipette electrodes had tip resistances of 2–4 MΩ and are filled with the following composition (mM): KCl (126.0), MgCl2.6H2O (4.5), ATP Mg salt (4.0), GTP tris salt (0.3), creatine PO4 (14.0), D-glucose (9.0), EGTA (9.0), HEPES (9.0). The pH is adjusted to 7.4 with KOH. Signals are acquired (3 kHz high frequency cut-off, 12 bit resolution) using a 586-based personal computer.
Whole cell recordings are made using broken patch access. Currents are evoked using either voltage steps (Vh=−50; Vt=−60 to 40 mV) or voltage ramps (−60 to 40 mV at 3.3 mV/sec.). The exact voltage clamp protocols are well known in the art. After stability is achieved control currents are recorded. Next, test compound is added to the superfusate. Currents are recorded for 5 to 10 minutes or until compound effects reach steady state. This is followed either by washout or addition of antagonists (linopirdine, XE-991) to the superfusate. […]

[2] = tested on: isolated rat bladder smooth muscle cell; experiment: Current clamp recording of resting membrane potential, rat cells; type: cell-based; details: 10 μM retigabine
Text: as §1, §2
Cell resting membrane potential (RMP) is measured in current clamp using the above mentioned instrumentation and pipette solutions. For these experiments nystatin is also added to the pipette solution (100 μg/ml) to allow recording through utilization of the perforated patch technique (Korn, et al, 1991). […] After this time, various antagonists (linopirdine, XE-991) are added to the perfusate and RMP is recorded for an additional 5 minutes. […]

SMILES: CCOC(=O)Nc1ccc(NCc2ccc(F)cc2)cc1N [retigabine, N-[2-amino-4-(4-fluorobenzylamino)-phenyl]carbamic acid ethyl ester]
- effect on outward current [1]: increase in outward current
- hyperpolarization of the cell ([2]; RMP −40 mV before exposure, single tracing FIG. 3a): approximately 10 mV
- resting membrane potential (RMP) after exposure ([2]; control RMP −29.0±4.5 mV, n=3): −43.0±3.5 mV
